Source: ChEMBL document CHEMBL3797052 (Eur J Med Chem, 2016)

Tested on: T47D
Test: Antiproliferative activity against human T47D cells assessed as growth inhibition after 48 hrs by sulforhodamine B assay
Assay type: functional
Conditions: not given

SMILES	TGI [µM]
CNC(=O)c1cc(Oc2ccc3nc(NC(=O)c4cc(C(F)(F)F)cc(C(F)(F)F)c4)sc3c2)ccn1	9.18

Same assay, conditions: read-out: LC50 (the source's name)

SMILES	CC50 [µM]
CNC(=O)c1cc(Oc2ccc3nc(NC(=O)c4cc(C(F)(F)F)cc(C(F)(F)F)c4)sc3c2)ccn1	> 100

Tested on: A549
Test: Antiproliferative activity against human A549/ATCC cells assessed as cell growth at 10^-8 M after 48 hrs by sulforhodamine B assay
Assay type: functional
Conditions: A549, 48 h, read-out: Activity

SMILES	growth at 0.01 µM [%]
CNC(=O)c1cc(Oc2ccc3nc(NC(=O)c4cc(C(F)(F)F)cc(C(F)(F)F)c4)sc3c2)ccn1	92

Tested on: not listed separately
Test: Antiproliferative activity against human HOP62 cells assessed as cell growth at 10^-6 M after 48 hrs by sulforhodamine B assay
Assay type: functional
Conditions: HOP-62, 48 h, read-out: Activity

SMILES	growth at 1 µM [%]
CNC(=O)c1cc(Oc2ccc3nc(NC(=O)c4cc(C(F)(F)F)cc(C(F)(F)F)c4)sc3c2)ccn1	103

Tested on: U-251
Test: Antiproliferative activity against human U251 cells assessed as cell growth at 10^-6 M after 48 hrs by sulforhodamine B assay
Assay type: functional
Conditions: U-251, 48 h, read-out: Activity

SMILES	growth at 1 µM [%]
CNC(=O)c1cc(Oc2ccc3nc(NC(=O)c4cc(C(F)(F)F)cc(C(F)(F)F)c4)sc3c2)ccn1	99

Tested on: not listed separately
Test: Antiproliferative activity against human LOXIMVI cells assessed as cell growth at 10^-6 M after 48 hrs by sulforhodamine B assay
Assay type: functional
Conditions: LOX IMVI, read-out: Activity

SMILES	growth at 1 µM [%]
CNC(=O)c1cc(Oc2ccc3nc(NC(=O)c4cc(C(F)(F)F)cc(C(F)(F)F)c4)sc3c2)ccn1	94

Tested on: A549
Test: Antiproliferative activity against human A549/ATCC cells assessed as cell growth at 10^-4 M after 48 hrs by sulforhodamine B assay
Assay type: functional
Conditions: A549, 48 h, read-out: Activity

SMILES	growth at 100 µM [%]
CNC(=O)c1cc(Oc2ccc3nc(NC(=O)c4cc(C(F)(F)F)cc(C(F)(F)F)c4)sc3c2)ccn1	-67

Tested on: HT-29
Test: Antiproliferative activity against human HT-29 cells assessed as cell growth at 10^-4 M after 48 hrs by sulforhodamine B assay
Assay type: functional
Conditions: HT-29, 48 h, read-out: Activity

SMILES	growth at 100 µM [%]
CNC(=O)c1cc(Oc2ccc3nc(NC(=O)c4cc(C(F)(F)F)cc(C(F)(F)F)c4)sc3c2)ccn1	-51

Tested on: SK-MEL-28
Test: Antiproliferative activity against human SK-MEL-28 cells assessed as cell growth at 10^-8 M after 48 hrs by sulforhodamine B assay
Assay type: functional
Conditions: SK-MEL-28, 48 h, read-out: Activity

SMILES	growth at 0.01 µM [%]
CNC(=O)c1cc(Oc2ccc3nc(NC(=O)c4cc(C(F)(F)F)cc(C(F)(F)F)c4)sc3c2)ccn1	97

Tested on: not listed separately
Test: Antiproliferative activity against human UACC257 cells assessed as cell growth at 10^-8 M after 48 hrs by sulforhodamine B assay
Assay type: functional
Conditions: UACC-257, 48 h, read-out: Activity

SMILES	growth at 0.01 µM [%]
CNC(=O)c1cc(Oc2ccc3nc(NC(=O)c4cc(C(F)(F)F)cc(C(F)(F)F)c4)sc3c2)ccn1	87

Tested on: not listed separately
Test: Antiproliferative activity against human OVCAR4 cells assessed as cell growth at 10^-8 M after 48 hrs by sulforhodamine B assay
Assay type: functional
Conditions: OVCAR-4, 48 h, read-out: Activity

SMILES	growth at 0.01 µM [%]
CNC(=O)c1cc(Oc2ccc3nc(NC(=O)c4cc(C(F)(F)F)cc(C(F)(F)F)c4)sc3c2)ccn1	95

Tested on: not listed separately
Test: Antiproliferative activity against human OVCAR8 cells assessed as cell growth at 10^-8 M after 48 hrs by sulforhodamine B assay
Assay type: functional
Conditions: OVCAR-8, 48 h, read-out: Activity

SMILES	growth at 0.01 µM [%]
CNC(=O)c1cc(Oc2ccc3nc(NC(=O)c4cc(C(F)(F)F)cc(C(F)(F)F)c4)sc3c2)ccn1	97

Tested on: not listed separately
Test: Antiproliferative activity against human NCI-ADR-RES cells assessed as cell growth at 10^-8 M after 48 hrs by sulforhodamine B assay
Assay type: functional
Conditions: read-out: Activity

SMILES	growth at 0.01 µM [%]
CNC(=O)c1cc(Oc2ccc3nc(NC(=O)c4cc(C(F)(F)F)cc(C(F)(F)F)c4)sc3c2)ccn1	102

Tested on: not listed separately
Test: Antiproliferative activity against human Caki1 cells assessed as cell growth at 10^-8 M after 48 hrs by sulforhodamine B assay
Assay type: functional
Conditions: CAKI-1, 48 h, read-out: Activity

SMILES	growth at 0.01 µM [%]
CNC(=O)c1cc(Oc2ccc3nc(NC(=O)c4cc(C(F)(F)F)cc(C(F)(F)F)c4)sc3c2)ccn1	101

Tested on: MDA-MB-435
Test: Antiproliferative activity against human MDA-MB-435 cells assessed as cell growth at 10^-6 M after 48 hrs by sulforhodamine B assay
Assay type: functional
Conditions: MDA-MB-435, 48 h, read-out: Activity

SMILES	growth at 1 µM [%]
CNC(=O)c1cc(Oc2ccc3nc(NC(=O)c4cc(C(F)(F)F)cc(C(F)(F)F)c4)sc3c2)ccn1	96

Tested on: not listed separately
Test: Antiproliferative activity against human UACC257 cells assessed as cell growth at 10^-6 M after 48 hrs by sulforhodamine B assay
Assay type: functional
Conditions: UACC-257, 48 h, read-out: Activity

SMILES	growth at 1 µM [%]
CNC(=O)c1cc(Oc2ccc3nc(NC(=O)c4cc(C(F)(F)F)cc(C(F)(F)F)c4)sc3c2)ccn1	101

Tested on: not listed separately
Test: Antiproliferative activity against human DU145 cells assessed as cell growth at 10^-6 M after 48 hrs by sulforhodamine B assay
Assay type: functional
Conditions: DU-145, 48 h, read-out: Activity

SMILES	growth at 1 µM [%]
CNC(=O)c1cc(Oc2ccc3nc(NC(=O)c4cc(C(F)(F)F)cc(C(F)(F)F)c4)sc3c2)ccn1	94

Tested on: M14
Test: Antiproliferative activity against human M14 cells assessed as cell growth at 10^-4 M after 48 hrs by sulforhodamine B assay
Assay type: functional
Conditions: M14, 48 h, read-out: Activity

SMILES	growth at 100 µM [%]
CNC(=O)c1cc(Oc2ccc3nc(NC(=O)c4cc(C(F)(F)F)cc(C(F)(F)F)c4)sc3c2)ccn1	-38

Tested on: SK-MEL-2
Test: Antiproliferative activity against human SK-MEL-2 cells assessed as cell growth at 10^-4 M after 48 hrs by sulforhodamine B assay
Assay type: functional
Conditions: SK-MEL-2, 48 h, read-out: Activity

SMILES	growth at 100 µM [%]
CNC(=O)c1cc(Oc2ccc3nc(NC(=O)c4cc(C(F)(F)F)cc(C(F)(F)F)c4)sc3c2)ccn1	-53

Tested on: not listed separately
Test: Antiproliferative activity against human SKOV3 cells assessed as cell growth at 10^-4 M after 48 hrs by sulforhodamine B assay
Assay type: functional
Conditions: SK-OV-3, 48 h, read-out: Activity

SMILES	growth at 100 µM [%]
CNC(=O)c1cc(Oc2ccc3nc(NC(=O)c4cc(C(F)(F)F)cc(C(F)(F)F)c4)sc3c2)ccn1	-56

Tested on: not listed separately
Test: Antiproliferative activity against human Caki1 cells assessed as cell growth at 10^-4 M after 48 hrs by sulforhodamine B assay
Assay type: functional
Conditions: CAKI-1, 48 h, read-out: Activity

SMILES	growth at 100 µM [%]
CNC(=O)c1cc(Oc2ccc3nc(NC(=O)c4cc(C(F)(F)F)cc(C(F)(F)F)c4)sc3c2)ccn1	-63

Tested on: not listed separately
Test: Antiproliferative activity against human RXF393 cells assessed as cell growth at 10^-4 M after 48 hrs by sulforhodamine B assay
Assay type: functional
Conditions: RXF 393, 48 h, read-out: Activity

SMILES	growth at 100 µM [%]
CNC(=O)c1cc(Oc2ccc3nc(NC(=O)c4cc(C(F)(F)F)cc(C(F)(F)F)c4)sc3c2)ccn1	-78

Tested on: not listed separately
Test: Antiproliferative activity against human UO31 cells assessed as cell growth at 10^-4 M after 48 hrs by sulforhodamine B assay
Assay type: functional
Conditions: UO-31, 48 h, read-out: Activity

SMILES	growth at 100 µM [%]
CNC(=O)c1cc(Oc2ccc3nc(NC(=O)c4cc(C(F)(F)F)cc(C(F)(F)F)c4)sc3c2)ccn1	-51

Tested on: not listed separately
Test: Antiproliferative activity against human DU145 cells assessed as cell growth at 10^-4 M after 48 hrs by sulforhodamine B assay
Assay type: functional
Conditions: DU-145, 48 h, read-out: Activity

SMILES	growth at 100 µM [%]
CNC(=O)c1cc(Oc2ccc3nc(NC(=O)c4cc(C(F)(F)F)cc(C(F)(F)F)c4)sc3c2)ccn1	-65
